Target: T1, Recombinant M-MuLV reverse transcriptase (Moloney murine leukemia virus, UniProt P03355)
T1 construct: Recombinant M-MuLV reverse transcriptase was purchased from New England Biolabs, USA; purchased New England Biolabs
Assay: Inhibition of M-MuLV reverse transcriptase activity ((3H)dTTP incorporation)
Format: biochemical
Description: The enhanced antiviral effect of the pharmaceutical composition of the invention was investigated by testing the inhibitory effect thereof on reverse transcriptase activity of Moloney murine virus(M-MuLV). Recombinant M-MuLV reverse transcriptase was purchased from New England Biolabs, USA. Measurement of the activity was carried out by investigating the poli(rA)noligo(dT)12-18 template-primer directed incorporation of (^3H)dTTP(Amersham) into the cDNS.
In each case, the final volume of the reaction mixture was 20 microliters. The composition of the reaction mixture was as follows:
2 microliters of 10× reverse transcriptase buffer,
20 microgram/ml template primer,
the test compound (dissolved in 1× reverse transcriptase buffer solution).
The composition of the 10× reverse transcriptase buffer (1 liter of solution contains the following substances):
500 mM tris-hydrochloride/tris (hydroxy-methyl)-amino-methan-hydrochloride/(pH=8,3),
300 mM potassium-chloride, and
100 mM DTT (dithiotreitol).
The test materials were AZT and compound “L” added separately or together. The reaction was initiated by adding 5U reverse transcriptase. The reaction mixture was incubated for 40 min at 37° C. Then, 15 microliters of reaction mixture was transferred to Whatman DE81 filter-paper disc, washed by 5% by mass of aqueous disodium-hydrogen-phosphate buffer, by water, and then with 96% by mass of ethanol. After drying, the discs were transferred into 5 ml of scintillation liquid (OptiPhase ‘HiSafe 3’, Wallac), and the radioactivity of samples was measured by a Packard Tri-Carb 2200 CE liquid scintillation counter. Enzymatic activity was calculated in percent from the experimental results.

| Structure (SMILES) | activity at 0.1 µM (0.1 microM/ml AZT, control = 100) [%] | activity at 0.2 µM (0.2 microM/ml AZT, control = 100) [%] | inhibitory effect on M-MuLV reverse transcriptase (in words) (AZT by itself, in the concentrations applied) | Activity (%) (0.02 mg/ml compound “L”, control = 100) | Activity (%) (0.03 mg/ml compound “L”, control = 100) | inhibitory effect (compound “L” alone) |
| --- | --- | --- | --- | --- | --- | --- |
| Cc1cn([C@H]2C[C@H](N=[N+]=[N-])[C@@H](CO)O2)c(=O)[nH]c1=O [AZT, 3′-azido-3′-deoxythymidine] | 91 | 84 | only minor inhibitory effect |  |  |  |
| Cl.Cl.NC(=NOCC(O)CN1CCCCC1)c1cccnc1 (stereo not drawn) [compound “L”, 0-(3-piperidino-2-hydroxy-1-propyl)nicotinic acid amid-oxime dihydrochloride] |  |  |  | 75 | 74 | about 25% |

Reference: US6451851B1, “Pharmaceutical composition with antiviral activity containing an hydroxymic acid derivative and an antiviral agent” (N-Gene Research Laboratories Inc., priority 1997, dated 2002)
